Laboratory results: article PMC12591170, “Glabridin‐Gold(I) Complex as a Novel Immunomodulatory Agent Targeting TrxR and MAPK Pathways for Synergistic Enhancement of Antitumor Immunity” (Advanced Science, 2025)
Entries after “also recorded” stand apart in the source; their conditions may differ.

What was measured:
HepG2 cells [1] = test: MTT antiproliferative assay, HepG2; assay type: cell-based, human
Description: All cells were incubated at 37 °C by DMEM complete medium (containing 1% penicillin−streptomycin and 12% FBS) in 5% CO2 incubator. 2–5 × 10^3 cells were cultured in 96‐well plates and each well contained 100 µL complete medium. OXA was dissolved in water, and all other complexes were dissolved in DMF. After cells adhered in the wells, different concentrations of complexes were diluted in 100 µL complete medium and added in the wells. The final volume in the each well was 200 µL and the content of DMF was maximum 0.5%. After 72 h incubation, the antiproliferative activity was tested by MTT assay.

[2] = Stability analysis by 1H NMR; assay type: physicochemical
Description: 5 mM of complex 6d was incubated with DMSO‐d6 or the mixed solution (DMSO‐d6 /D2O = 9:1) or the same mixed solution with 5 mM of GSH for different times (0 – 72 h), and the ^1H NMR spectra were acquired. The stability of AF was determined by the same method.

TrxR = biological target: T1, TrxR (Homo sapiens, UniProt Q16881); test: CETSA and ITDR assay, TrxR; assay type: binding; details: HepG2 proteins, 8 µM, ITDR at 78 °C
T1 construct: endogenous in cells; host or cells: HepG2
T1 sequence (Q16881 151-649 limits assumed): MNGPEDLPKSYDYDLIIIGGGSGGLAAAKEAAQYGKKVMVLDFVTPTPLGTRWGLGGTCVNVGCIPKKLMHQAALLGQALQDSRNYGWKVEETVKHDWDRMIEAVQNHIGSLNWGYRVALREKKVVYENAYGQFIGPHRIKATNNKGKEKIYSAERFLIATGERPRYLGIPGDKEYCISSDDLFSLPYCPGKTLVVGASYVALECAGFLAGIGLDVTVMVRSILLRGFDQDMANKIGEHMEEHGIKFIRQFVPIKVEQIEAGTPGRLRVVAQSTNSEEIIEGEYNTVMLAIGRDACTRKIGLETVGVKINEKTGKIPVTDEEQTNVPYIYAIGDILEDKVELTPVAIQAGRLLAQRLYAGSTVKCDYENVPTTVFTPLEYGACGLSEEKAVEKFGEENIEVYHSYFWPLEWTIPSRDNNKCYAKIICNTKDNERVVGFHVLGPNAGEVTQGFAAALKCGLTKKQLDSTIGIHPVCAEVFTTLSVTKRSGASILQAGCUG
Description: The treated HepG2 cells in 10 cm culture dishes were collected and washed with PBS. The collected cells were repeatedly frozen and thawed for 3 times by liquid nitrogen and 37 °C water bath. Then, proteins were isolated by centrifugation. The isolated proteins were divided into different tubes and incubated with same concentration of 6d at different temperature. Western blot was applied for CETSA by analyzing the band intensity of different temperature groups.
The temperature, which results in significant band differences between 6d and control group, was selected for ITDR assay. The isolated proteins were divided into different tubes and incubated with different concentration of 6d at same temperature. The binding between 6d and target protein was assessed by analyzing the band intensity of different concentration groups.

HepG2 cells [3] = test: MMP measurement (JC-1); assay type: cell-based, human; details: HepG2, 24 h
Description: 12‐well plate was applied to incubate HepG2 cells (5 × 10^4 cells per wells). After overnight, cells were treated with DMF (0.1%), AF (4 µM) or different concentrations of 6d (2, 4, 8 µM) for 24 h. 2.5 µg mL^−1 JC‐1 probe was added in the wells after removing original liquid. 15 min later, PBS was applied to wash cells for two times. Then, the fluorescence images were captured by the fluorescence microscopy.

PD-L1 [4] = test: PD-L1 expression in HepG2 (western blot, immunofluorescence, flow cytometry); assay type: cell-based, human; details: HepG2, 24 h
Description: (§1) HepG2 cells were incubated in 6 cm culture dishes and treated with different complexes. The treated cells were lysed with lysis buffer (RIPA:PMSF:phosphatase inhibitor:protease inhibitor = 100:1:1:1). The lysed cells were further broken by sonication, and proteins were isolated by centrifugation. The protein concentrations were detected by BCA assay. 10% SDS PAGE gel was usually applied to separate the different kDa of proteins, and more than 200 kDa of proteins were separated using 8% SDS PAGE gel. After seperation, proteins were transferred onto polyvinylidene difluoride (PVDF) membranes. The target proteins were labeled by various specific primary antibodies at 4 °C overnight. Then, the membranes were treated with anti‐rabbit or anti‐mouse secondary antibody for 2 h. Tris buffered saline with tween 20 (TBST) was applied to wash the membranes after each operation above. The target proteins’ bands were detected by the enhanced chemiluminescence (ECL) procedure.
5 × 10^4 HepG2 cells were treated with complexes in 24‐well plates for 24 h. Subsequently, cells were fixed with 4% paraformaldehyde. Various specific antibodies were added for incubation at 4 °C overnight after cells were permeabilized with Triton X‐100 (except for membrane proteins) and blocked with BSA. Then, the cells were incubated with fluorescently‐labeled secondary antibodies in darkness for 2 h. After that, DAPI was added to stain nuclear in darkness. PBS was applied for washing after each operation above (Tris buffered saline (TBS) was applied for washing if phosphorylated protein was analyzed). The cell images were captured by the fluorescence microscopy.
4 × 10^5 HepG2 cells were incubated in 6‐well plates, and complexes were added in the wells. The cells were collected after incubation, and the treated cells were labeled with probes or fluorescently‐labeled antibodies. A flow cytometer was applied to analyze the labeled cells.

phosphorylated Akt = test: Western blot of phosphorylated Akt in HepG2; assay type: cell-based, human; details: HepG2, 24 h; GLA at 8 µM
Description: as §1

PD-L1 [5] = test: In vivo PD-L1 expression in tumor tissue; parameters: species or system C57BL/6 mice; details: western blot, 13 days of treatment
[6] = system: immune cells in Hepa1-6 tumor and spleen tissue; test: In vivo immune cell and marker analysis (flow cytometry, immunofluorescence, immunohistochemistry); parameters: species or system C57BL/6 mice
Description: All mice were 6–8 weeks old males and procured from Hangzhou Medical College, located in Hangzhou, China. […] 2 × 10^6 Hepa1‐6 cells in 100 µL DMEM were subcutaneously seeded in underarms of C57BL/6 mice. […] Meanwhile, the mice weights and tumor volume were recorded, and the calculation formula of tumor volume was Volume = Width^2 × Length/2. After 13 days, all mice were sacrificed for collection of tumors, hearts, livers, spleens, lungs and kidneys. Collagenase IV (1 mg mL^−1) and DNase I (1 µg mL^−1) were applied to digest a part of the tumor tissue into cell suspension, and lysis buffer was used to remove red blood cells. The prepared cells above were stained with antibodies (anti‐CD3e‐FITC, and anti‐CD8a‐PE; anti‐CD11c‐APC, anti‐CD80‐PE, and anti‐CD86‐FITC; anti‐CD45‐Percp, anti‐CD11b‐APC, and anti‐Ly‐6G/Ly‐6C(Gr‐1)‐FITC; anti‐CD11b‐APC, anti‐CD206‐PE, and CD86‐FITC). CD3^+CD8^+ T cells, CD80^+CD86^+ DCs, CD11b^+Gr‐1^+ MDSCs, CD206^−CD86^+ M1‐type macrophages and CD206^+CD86^− M2‐type macrophages were analyzed by flow cytometry. Then, another part of tumor tissues were fixed with 4% paraformaldehyde, embedded in paraffin, cut into slices and stained with antibodies for immunofluorescence and immunohistochemistry analysis.

[7] = flow cytometry and immunofluorescence

CCn1ccn(CCCCCOc2ccc([C@@H]3COc4c(ccc5c4C=CC(C)(C)O5)C3)c(OCCCCCn3ccn(CC)[c]3=[Au][Br])c2)[c]1=[Au][Br] [6d]
IC50 (HepG2 cells [1]; 72 h MTT assay, Mean ± SD): 2540 ± 130 nM | times more toxic than GLA (HepG2 cells [1]; HepG2 cells): 16 times | time after which 1H NMR spectra began to change / showed new peaks ([2]; 5 mM complex, DMSO-d6/D2O 9:1 containing GSH (5 mM)): 12 h | stability by 1H NMR ([2]; DMSO-d6, over 72 h): remained stable | stability by 1H NMR ([2]; DMSO-d6/D2O (v1/v2 = 9:1), over 72 h): remained stable | binding to TrxR (CETSA, ITDR) (TrxR): significant binding | mitochondrial membrane potential (MMP) (HepG2 cells [3]): decreased MMP | PD-L1 expression (western blot) (PD-L1 [4]): downregulated; also recorded: significantly inhibited | PD-L1 expression on the membrane surface (PD-L1 [4]; immunofluorescence and flow cytometry): reduced | Akt phosphorylation (western blot) (phosphorylated Akt): inhibited Akt phosphorylation | PD-L1 expression in tumor tissue (PD-L1 [5]): inhibited | DC maturation in spleen and tumor tissues [6, 7]: induced DC maturation | macrophage polarization in tumor [6, 7]: significantly promoted M1‐type macrophage polarization | T lymphocyte infiltration in tumor ([6]; flow cytometry and immunohistochemistry): promoted T lymphocyte infiltration | Arg-1 expression in tumor tissue ([6]; immunofluorescence): downregulation | CRT exposure in tumor tissue ([6]; immunofluorescence): promoted CRT exposure | GzmB expression in tumor tissue ([6]; immunofluorescence, OXA vs model group, 6d vs OXA group): significantly upregulated GzmB expression | MDSC infiltration in tumor ([6]; vs model group, 13 days): reducing the infiltration | Treg infiltration in tumor (Foxp3) ([6]; vs model group, 13 days): reducing the infiltration
